The values that follow are results of earlier work, collected in patent US6642275B2, “Formulation for respiratory tract administration” (Euro- Celtique, S.A., priority 1995, dated 2003).

Read-outs that look alike come from different tables or passages of the source.

For series [1] the following is noted: animal models, M1 vs tramadol.
Series [2] deals with opioid receptors.
For series [3] the following is noted: for plasma clearance rate: 100 mg IV dose.
The mark [4] stands for this setting: single oral dose, adjusted for body weight.

As for `CN(C)C[C@H]1CCCC[C@]1(O)c1cccc(O)c1` [Formula M1, mono-O-desmethyltramadol], the “potency in producing analgesia relative to tramadol” value is on record as “up to 6 times” in series [1] and “about 6 times” in series [1] (listed as mono-O-desmethyltramadol). For the same compound, in series [2], the “binding to opioid receptors (affinity, in words)” value was “high affinity”. The “potency in opioid receptor binding relative to tramadol” value in series [2] (M1 vs tramadol) is on record as 200 times.

`COc1cccc([C@@]2(O)CCCC[C@H]2CN(C)C)c1` (racemic) [tramadol, (±) trans-2-[(dimethylamino)methyl]-1-(3-methoxyphenyl) cyclohexanol]: the plasma clearance rate in series [3] (females) was 5.7 mL/min/kg. In addition, the plasma clearance rate in series [3] (males) was 6.4 mL/min/kg. Further, in series [3] (setting [4]), the “higher area under the concentration-time curve in females compared to males” value is 35% and the “higher peak tramadol concentration in females compared to males” value is listed as 12%.
